Test results reported in PMC4498724 (Drug Design, Development and Therapy, 2015).

Key:
[1] = target: MRP1/ABCC1 (Homo sapiens, UniProt P33527); test: Inhibition of MRP1-mediated calcein efflux in HEK293-ABCC1 cells; assay type: cell-based; details: 2 μM or 10 μM; 35 μM verapamil taken as 100%
[2] = tested on: Wild-type HEK293 cells; test: Intrinsic cytotoxicity, MTT cell-survival assay; details: 72 hours of treatment
[3] = target: T1, ABCG2 (Homo sapiens, UniProt Q9UNQ0); test: Vanadate-sensitive ATPase activity of ABCG2 in Sf9 insect cell membranes; details: 2 μM compound; for Stimulation of vanadate-sensitive ABCG2 ATPase activity: basal activity without inhibitor taken as 100%
T1 sequence (Q9UNQ0 1-655): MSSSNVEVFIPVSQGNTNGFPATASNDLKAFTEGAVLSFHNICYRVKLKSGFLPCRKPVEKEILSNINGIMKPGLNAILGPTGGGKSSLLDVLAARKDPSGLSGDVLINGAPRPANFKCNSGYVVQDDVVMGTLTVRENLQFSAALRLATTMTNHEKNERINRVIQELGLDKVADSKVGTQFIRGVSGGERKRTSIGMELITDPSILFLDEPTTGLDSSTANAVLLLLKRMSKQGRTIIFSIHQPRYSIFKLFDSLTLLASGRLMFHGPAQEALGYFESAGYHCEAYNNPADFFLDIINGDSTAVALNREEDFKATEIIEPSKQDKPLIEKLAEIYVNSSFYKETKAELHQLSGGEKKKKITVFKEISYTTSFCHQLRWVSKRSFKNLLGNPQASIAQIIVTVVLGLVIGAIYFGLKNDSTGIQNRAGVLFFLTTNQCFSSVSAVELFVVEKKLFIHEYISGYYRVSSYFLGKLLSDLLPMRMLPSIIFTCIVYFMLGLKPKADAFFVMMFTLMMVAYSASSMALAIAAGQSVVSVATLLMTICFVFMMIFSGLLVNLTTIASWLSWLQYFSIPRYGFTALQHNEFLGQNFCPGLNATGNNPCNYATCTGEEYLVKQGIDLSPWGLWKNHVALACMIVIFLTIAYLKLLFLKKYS

[4] = target: T2, human CK2 holoenzyme (Homo sapiens, UniProt P68400); test: biochemical; details: for inhibition at 10 µM: read-out: CK2 inhibition % at 10 µM
[5] = target: T2, human CK2 holoenzyme; details: IC50 (CK2) divided by IC50 (ABCG2) of Table 1
[6] = target: T1, ABCG2; test: Inhibition of ABCG2-mediated mitoxantrone efflux in ABCG2-transfected cells; assay type: cell-based

T2 sequence (P68400 whole entry): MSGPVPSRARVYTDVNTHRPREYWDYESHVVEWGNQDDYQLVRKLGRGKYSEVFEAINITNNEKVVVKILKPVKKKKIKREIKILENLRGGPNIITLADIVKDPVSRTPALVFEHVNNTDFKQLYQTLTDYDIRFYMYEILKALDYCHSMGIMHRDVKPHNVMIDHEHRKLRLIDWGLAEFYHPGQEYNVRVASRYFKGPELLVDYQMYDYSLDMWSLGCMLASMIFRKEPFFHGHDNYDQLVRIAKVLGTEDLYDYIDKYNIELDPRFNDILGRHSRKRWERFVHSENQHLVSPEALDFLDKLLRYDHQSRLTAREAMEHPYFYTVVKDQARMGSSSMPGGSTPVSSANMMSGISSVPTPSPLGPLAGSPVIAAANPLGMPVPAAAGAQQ
T2 sequence (P67870 whole entry partner): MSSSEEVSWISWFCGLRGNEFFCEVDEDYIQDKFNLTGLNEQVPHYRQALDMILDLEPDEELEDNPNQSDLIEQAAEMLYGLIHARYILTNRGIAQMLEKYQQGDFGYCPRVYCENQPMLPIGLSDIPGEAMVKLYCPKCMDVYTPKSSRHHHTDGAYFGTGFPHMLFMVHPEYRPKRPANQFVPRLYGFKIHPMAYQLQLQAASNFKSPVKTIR
Sequence of MRP1/ABCC1 (P33527 whole entry): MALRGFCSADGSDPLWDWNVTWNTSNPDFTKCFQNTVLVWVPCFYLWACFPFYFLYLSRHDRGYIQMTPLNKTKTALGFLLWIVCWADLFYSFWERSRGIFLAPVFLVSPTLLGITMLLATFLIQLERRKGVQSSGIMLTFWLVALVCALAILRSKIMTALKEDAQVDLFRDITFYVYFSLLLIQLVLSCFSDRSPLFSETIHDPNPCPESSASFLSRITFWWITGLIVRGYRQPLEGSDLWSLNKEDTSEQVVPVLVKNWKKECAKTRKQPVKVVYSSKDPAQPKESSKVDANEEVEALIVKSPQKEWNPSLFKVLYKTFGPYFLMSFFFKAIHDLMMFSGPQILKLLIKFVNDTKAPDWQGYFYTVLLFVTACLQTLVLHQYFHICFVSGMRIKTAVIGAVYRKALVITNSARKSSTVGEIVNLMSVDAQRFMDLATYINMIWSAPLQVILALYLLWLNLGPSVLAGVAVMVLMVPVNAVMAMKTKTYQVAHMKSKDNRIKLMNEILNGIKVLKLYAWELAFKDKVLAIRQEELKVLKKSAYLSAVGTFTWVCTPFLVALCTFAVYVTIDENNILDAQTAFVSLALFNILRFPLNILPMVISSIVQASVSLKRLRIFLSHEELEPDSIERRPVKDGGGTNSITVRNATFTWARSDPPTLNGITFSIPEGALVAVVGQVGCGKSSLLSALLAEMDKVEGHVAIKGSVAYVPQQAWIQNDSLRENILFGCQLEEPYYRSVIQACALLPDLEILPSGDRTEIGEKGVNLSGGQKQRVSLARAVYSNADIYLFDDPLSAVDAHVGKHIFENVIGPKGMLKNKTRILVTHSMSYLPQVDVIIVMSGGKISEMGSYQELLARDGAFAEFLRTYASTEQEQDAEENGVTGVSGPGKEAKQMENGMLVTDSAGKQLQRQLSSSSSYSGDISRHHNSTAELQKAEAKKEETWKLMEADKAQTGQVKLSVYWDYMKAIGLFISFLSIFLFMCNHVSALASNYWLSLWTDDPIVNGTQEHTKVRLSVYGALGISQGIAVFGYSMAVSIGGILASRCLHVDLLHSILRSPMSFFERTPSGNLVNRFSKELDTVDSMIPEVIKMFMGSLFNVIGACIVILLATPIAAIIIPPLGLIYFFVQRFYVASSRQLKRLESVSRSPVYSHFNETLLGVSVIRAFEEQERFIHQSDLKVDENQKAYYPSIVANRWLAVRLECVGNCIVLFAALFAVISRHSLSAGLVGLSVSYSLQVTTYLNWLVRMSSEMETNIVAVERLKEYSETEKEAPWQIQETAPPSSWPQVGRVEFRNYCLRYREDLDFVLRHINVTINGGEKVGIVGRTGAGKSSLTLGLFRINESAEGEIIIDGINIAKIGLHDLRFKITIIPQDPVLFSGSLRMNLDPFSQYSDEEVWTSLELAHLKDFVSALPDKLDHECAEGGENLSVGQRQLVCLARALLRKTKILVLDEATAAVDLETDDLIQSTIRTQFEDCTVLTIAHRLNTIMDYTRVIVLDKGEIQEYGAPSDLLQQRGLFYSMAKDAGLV

Row | SMILES | Inhibition of MRP1-mediated calcein efflux [1] | Cytotoxicity IG50 [2] [µM] | Stimulation of vanadate-sensitive ABCG2 ATPase activity [3] | IC50 [4] [µM] | inhibition at 10 µM [4] [%] | AGCG2/CK2 [5] | IC50 [6] [µM] | Effect on ABCG2 basal ATPase activity [3]
1 | O=C1c2ccccc2-c2c1c1c(O)cccc1n2CCc1ccccc1 [Compound 5c, 9-Hydroxy-5-(2-phenylethyl)-5H-indeno[1,2-b]indole-10-one] | very limited, if any, inhibition | 42.7 ± 9.7 | 2- to 4.5 fold | 7.5 | 57 | 47 | 0.16 ± 0.02 | –
2 | O=C1c2ccccc2-c2c1c1c(O)cccc1n2CCCc1ccccc1 [Compound 5d, 9-Hydroxy-5-(3-phenylpropyl)-5H-indeno[1,2-b]indole-10-one] | – | – | 2- to 4.5 fold | ~20 | 27 | – | 0.64 ± 0.23 | –
3 | Cc1cc(O)c2c3c(n(CCc4ccccc4)c2c1)-c1ccccc1C3=O [Compound 5f, 9-Hydroxy-7-methyl-5-(2-phenylethyl)-5H-indeno[1,2-b]indole-10-one] | very limited, if any, inhibition | 42.3 ± 2.8 | 2- to 4.5 fold | – | – | – | 0.16 ± 0.01 | –
4 | O=C1c2ccccc2-c2c1c1c(O)cc(-c3ccccc3)cc1n2CCc1ccccc1 [Compound 5g, 9-Hydroxy-7-phenyl-5-(2-phenylethyl)-5H-indeno[1,2-b]indole-10-one] | – | – | 2- to 4.5 fold | ~11 | – | – | 0.51 ± 0.09 | –
5 | COc1ccccc1CCn1c2c(c3c(O)cccc31)C(=O)c1ccccc1-2 [Compound 5h, 9-Hydroxy-5-[2-(2-methoxyphenyl)ethyl]-5H-indeno[1,2-b]indole-10-one] | very limited, if any, inhibition | 54 ± 14 | 2- to 4.5 fold | 1.3 | – | – | 0.15 ± 0.01 | –
6 | COc1cccc(CCn2c3c(c4c(O)cccc42)C(=O)c2ccccc2-3)c1 [Compound 5i, 9-Hydroxy-5-[2-(3-methoxyphenyl)ethyl]-5H-indeno[1,2-b]indole-10-one] | – | 45.7 ± 6.1 | 2- to 4.5 fold | ~11.5 | 44 | – | 0.37 ± 0.09 | –
7 | COc1ccc(CCn2c3c(c4c(O)cccc42)C(=O)c2ccccc2-3)cc1 [Compound 5j, 9-Hydroxy-5-[2-(4-methoxyphenyl)ethyl]-5H-indeno[1,2-b]indole-10-one] | – | – | 2- to 4.5 fold | ~14 | – | – | 0.2 ± 0.01 | maximal stimulation
8 | O=c1ccc(=O)c2c1c1c(=O)c3ccccc3c1n2CCc1ccccc1 [Compound 6c, 5-(2-Phenylethyl)-5H-indeno[1,2-b]indole-6,9,10-trione] | – | 6.9 ± 2.1 | – | ~13 | 40 | – | ~30 | did not produce any effect
9 | O=c1ccc(=O)c2c1c1c(=O)c3ccccc3c1n2CCCc1ccccc1 [Compound 6d, 5-(3-Phenylpropyl)-5H-indeno[1,2-b] indole-6,9,10-trione] | – | 6.8 ± 0.5 | – | 6.4 | 60 | – | ~15 | –
10 | O=c1cc(-c2ccccc2)c(=O)c2c1c1c(=O)c3ccccc3c1n2Cc1ccccc1 [Compound 6e, 5-Benzyl-7-phenyl-5H-indeno[1,2-b]indole-6,9,10-trione] | – | 7.1 ± 1.1 | – | ~13 | 40 | – | ~13 | did not produce any effect
11 | Cc1cc(=O)c2c3c(=O)c4ccccc4c3n(CCc3ccccc3)c2c1=O [Compound 6f, 7-Methyl-5-(2-phenylethyl)-5H-indeno[1,2-b]indole-6,9,10-trione] | very limited, if any, inhibition | 15.6 ± 5.9 | – | – | – | – | 0.84 ± 0.31 | did not produce any effect
12 | O=c1cc(-c2ccccc2)c(=O)c2c1c1c(=O)c3ccccc3c1n2CCc1ccccc1 [Compound 6g, 7-Phenyl-5-(2-phenylethyl)-5H-indeno[1,2-b]indole-6,9,10-trione] | very limited, if any, inhibition | 3.7 ± 2.2 | – | ~11.5 | 44 | – | 0.43 ± 0.01 | very limited stimulation
